Source: US12180159B2, “Activators of the unfolded protein response” (The Board of Trustees of the University of Illinois, priority 2018, dated 2024)

Key:
Caov-3 cells = experiment: Cell death of Caov-3 ovarian cancer cells (automated Trypan Blue exclusion); assay type: cell-based, human; conditions: 24 hours
Description: FIG. 33. 105, but not BHPI, kills therapy-resistant ovarian CaOV-3 ovarian cancer cells. (±)-105; Cell death assay: Automated Trypan Blue exclusion. (24 hours post (±)-105) FIG. 34. (−)105 nearly eradicates ER+ drug-resistant tumors. Orthotopic breast cancer model, TYS-Luc cells, 40 mg/kg (−)-105 i.p., daily. 7 d Post injection image is a much longer exposure at higher gain than before injection image.
Caov3: Drug resistant ERα positive ovarian cancer cells. […] These cells are completely resistant to tamoxifen and fulvestrant and partially resistant to cisplatin and paclitaxel.

[1] = tested on: ERα Negative MCF-10A cells; experiment: Trypan Blue exclusion cell death assay, MCF-10A cells; assay type: cell-based; conditions: 75 nM, 24 hours
Description: (§1) TRYPAN BLUE: For decades, viable cells have been measured by their ability to exclude the dye Trypan Blue. […] Dead cells, which have lost membrane integrity, take up the dye and are blue. Thus, the percentage of dead cells is the percentage of cells that are Trypan Blue positive out of the total cell population. Quantitative assessment of Trypan Blue uptake uses a cell counter from Fisher. Since the assay is instrument based, there is no observer bias in determining the percentage of Trypan Blue positive cells.
(§2) TRYPAN BLUE ASSAYS: Assays are performed on cells in 6 well plates: 300,000 cells are plated in each well of a 6 well plate in 3 ml of medium. After 24 hours, the DMSO vehicle or the indicated compound is added (in 1000th of the vol.) The cells incubated for an additional 24 hours, and then harvested in 0.25 ml of trypsin, followed after harvest by 0.75 ml of medium. The cells are spun down and resuspended in 100-200 μl of medium left that is over the cell pellet (resuspend cells by pipetting up and down a few times). Add 10 μl to 10 μl of trypan blue. Then 10 μl is inserted into the counting slide. After inserting the slide into the Fisher TC20 counting is automatic (these many cells are needed because an accurate ratio of Trypan Blue positive to Trypan Blue negative cells requires about 200 cells in the field the instrument counts).
In FIG. 28, neither the test compounds nor BHPI kill non-tumorigenic ERα Negative MCF-10A breast cells. ERα Negative MCF-10A cells were maintained for 24 hours in DMSO vehicle or 75 nM of BHPI or 75 nM of each of the indicated test compounds: 4, 6 and 105. Cell death was determined using the instrument-based Trypan Blue exclusion assay. (n=3±SEM).

[2] = tested on: ERα positive breast cancer; experiment: Mouse xenograft model of ERα positive breast cancer (BHPI); assay type: in vivo; conditions: at reasonable doses
[3] = tested on: partially BHPI-resistant T47D clones 1, 3, 8, and 11; experiment: Growth of partially BHPI-resistant T47D clones (MTS); assay type: cell-based, human; conditions: 100 nM and 1 μM, 4 days
Description: (§3) ERα containing T47D human breast cancer cells able to survive in 1 μM BHPI were selected by clonal outgrowth. The effect of 100 nM and 1 μM BHPI and (−)-105 on growth of the (BHPI-sensitive) parental T47D cells and partially BHPI-resistant T47D clones 1, 3, 8, and 11 was evaluated. 4,000 cells/well were plated. Cell number was determined by MTS assay from a standard curve of absorbance versus cell number. […] Thus, in 4 days (−)-105 killed some, but not all, of the resistant cells.

[4] = tested on: T47D, TYS-4 and TDG-1 cells; experiment: MTS proliferation assay, T47D, TYS and TDG cells; assay type: cell-based, human; conditions: 4 days
Description: FIG. 30 compares the ability of BHPI and test compounds to inhibit proliferation of T47D, TYS and TDG cells. T47D cells were in medium containing 10 FBS (which contains estrogen), TYS-4 and TDG-1 cells were in medium containing 10% cd-FBS (estrogen depleted). Cells are plated at 2,000 cells/well in 96 well plates. After 24 hours in medium containing FBS or charcoal-dextran treated FBS (depleted of endogenous estrogens), the indicated concentration of each compound (in DMSO at 1/1000th of the volume of medium) was added. After 2 days the medium was changed, and the compounds were added again. After 2 additional days (4 days total) MTS assays are used to evaluate cell proliferation. (n=6±S.E.M.).

TYS-Luc cells = experiment: Long-term cell culture experiment, TYS-Luc cells (MTS); assay type: cell-based, human; conditions: 2 weeks 1 μM, then 4 weeks without drug
Description: To simulate the effect of several weeks of treatment of a tumor in a mouse xenograft, long-term cell culture experiments were performed. TYS-Luc cells (T47DERαY537S-Luc cells; ERαY537S is the most lethal ERα mutation seen in metastatic breast cancer) were plated at 4,000 cells/well in 96 well plates. […] After 2 weeks (medium change every 2 days) cell number was determined using MTS and a standard curve of absorbance versus cell number for TYS-Luc cells. Notes: (i) Bars denote the BHPI and (−)-105 arms of the experiment. No drug is present during regrow. […] This allows any surviving cells to regrow. After 4 weeks the cells were assayed using MTS. […] (Note: Visual inspection of the wells confirmed that there were no cells in the well treated for 2 weeks with active (−)-105.) To test whether the cells that regrew after BHPI treatment were resistant to BHPI they were re-treated for another cycle (BHPI Retreat) and shown to retain sensitivity to BHPI killing. (n=8 biological replicates±SEM.

[5] = tested on: (BHPI-sensitive) parental T47D cells; experiment: Growth of parental T47D cells (MTS); assay type: cell-based, human; conditions: 100 nM and 1 μM, 4 days
Description: as §3

T47D cells [6] = conditions: 24 hours, up to 1,000 nM
Description: One such change is loss of plasma membrane polarity. This is monitored using Annexin V. Dying cells also take up the dye propidium iodide. Propidium iodide (PI) fluoresces when it is intercalated into DNA. These assays monitor cells at specific stages of cell death.
FLOW CYTOMETRY (FITC) ASSAYS: Cells were seeded in 12-well plates, 75,000 cells/well, and allowed to adhere overnight. The next day, the indicated concentrations of raptinal (positive control), (−)-105, (±)-105, and (+)-105 were added and allowed to incubate at 37° C. for 24 hours (Final Volume: 1 ml, 0.1% DMSO). After incubation, cells were harvested and resuspended in 350 μl of cold Annexin binding buffer (10 mM HEPES, 140 mM NaCl, 2.5 mM CaCl2, pH 7.4) premixed with Annexin V-FITC and PI dyes. Samples were analyzed on a BD Biosciences LSRII flow cytometer, and data analysis was performed using FSC Express Version 5-6. Cell death was assessed relative to a DMSO treated control.
T47D, human breast cancer cells were plated at 75,000 cells/well. […] After 24 hours viable cells were determined by FACS using annexin V-FITC and propidium iodide dyes. […]
75,000 ERα positive T47D, human breast cancer cells, were plated/well. […] After 24 hours viable cells were determined by FACS using annexin V-FITC and propidium iodide dyes. […]

TDG cells (T47DERαD538G) = experiment: Trypan Blue exclusion cell death assay, TDG cells; assay type: cell-based, human; conditions: 24 hours
Description: as §1, §2
The Trypan Blue cell death assay was used to evaluate the ability of the active enantiomer of C-105 [(−)-105] to kill ERα positive TDG-Luc cells. For all studies, 300,000 TDG-Luc cells/well in 10% FBS were plated in a 6 well plate in triplicate. 24 hours after plating, the indicated concentrations the active enantiomer of (−)-105, or BHPI (top) ICI, or OHT (Lower left) or (+)-105 (lower right) were added. After 24 hours, the cells were harvested, and the % dead cells was determined by automated Trypan Blue exclusion using the Countess II automated hemocytometer. Percentage of viable cells was calculated by doing 100−(Cell Death %). (n=3±SEM).
TDG cells were incubated for 24 hours with 75 nM of BHPI or 75 nM of each of the indicated test compounds: 4, 6 and (±)-105 (enantiomers not separated). Cell death was determined using the instrument-based Trypan Blue exclusion assay. Structures are in the Synthesis section. […] (n=3±SEM).

T47D cells [7] = experiment: Trypan Blue exclusion cell death assay, T47D cells; assay type: cell-based, human; conditions: 75 nM, 24 hours
Description: as §1
TRYPAN BLUE ASSAYS: Assays are performed on cells in 6 well plates: 300,000 cells are plated in each well of a 6 well plate in 3 ml of medium. After 24 hours, the DMSO vehicle or the indicated compound is added (in 1000th of the vol.) The cells incubated for an additional 24 hours, and then harvested in 0.25 ml of trypsin, followed after harvest by 0.75 ml of medium. […]
T47D cells were incubated for 24 hours with 75 nM of BHPI or 75 nM of each of the indicated test compounds: 4 and 6. Cell death was determined using the instrument-based Trypan Blue exclusion assay. […]
T47D cells were treated for 24 hours with 100 nM BHPI, or with 100 nM of each of the test compounds: 6, 8, and 105. […] Cell death was determined using the instrument-based Trypan Blue exclusion assay. […]

TYS cells (T47DERαY537S) = experiment: Trypan Blue exclusion cell death assay, TYS cells; assay type: cell-based, human; conditions: 24 hours
Description: as §1, §2
TYS cells were incubated for 24 hours with 35 nM of BHPI or 35 nM of each of the indicated test compounds: 2, 4, and 105. Cell death was determined using the instrument-based Trypan Blue exclusion assay. (n=3±SEM).
TYS cells were incubated for 24 hours with 50 nM of BHPI or 50 nM of each of the indicated test compounds: 4, 6 and 105. Cell death was determined using the instrument-based Trypan Blue exclusion assay. (n=3±SEM).

[8] = tested on: ATP levels in TYS-Luc cells; experiment: Intracellular ATP levels; assay type: cell-based, human; conditions: 10,000 nM thapsigargin with 1,000 nM (−)-105, 1 hr
Description: TYS-Luc cells were maintained DMSO vehicle (Veh), 1,000 nM BHPI, 1,000 nM (−)-105 with and without 10,000 nM thapsigargin (THG) for the indicated times. ATP levels were determines using a kit and relative ATP levels were from a standard curve. […] (n=3±SEM).

MCF-7 and TYS-Luc cells = experiment: Cell death with 2-APB or thapsigargin (Trypan Blue exclusion); assay type: cell-based, human; conditions: thapsigargin, TYS-Luc cells, 1 hour
Description: ERα positive MCF-7 and TYS-Luc were treated with DMSO vehicle (Veh), or BHPI or (−)-105 plus or minus 2-APB for the indicated times. Cells death was determined using the instrument-based Trypan Blue exclusion assay. […] This is consistent with (−)-105 inducing powerful lethal activation of the anticipatory UPR pathway. (n=3±SEM). […] TYS-Luc cells were maintained in DMSO vehicle (Veh) or BHPI, or (−)-105 with or without thapsigargin (THG) for the indicated times. Blocking the decline in ATP levels (FIG. 19) with THG inhibited (−)-105-induced cell death. […] (n=3±SEM).

In the case of `Cc1cccc2c1NC(=O)C2(c1ccc(O)cc1)c1ccc(O)cc1` [BHPI, reference compound], the “killing of Caov-3 ovarian cancer cells” value (Caov-3 cells) is reported as “blocks growth of Caov-3 cells but does not kill them”, the “death of ERα Negative MCF-10A cells” value [1] is reported as “neither BHPI nor any of the test compounds induce significant death” and the “effect on tumor growth” value [2] is reported as “stopped tumor growth and induced rapid and substantial tumor regression”. The “growth of the BHPI-resistant clones” value [3] was “inhibited growth but could not stop growth of the resistant clones”, the inhibition of proliferation [4] was “effectively inhibit proliferation” and the “regrowth of cells after treatment” value (TYS-Luc cells) was “robust regrowth”. For the same compound, the “growth / killing of parental T47D cells” value [5] was “blocked growth and killed many of the T47D cells”, the “effect on tumor growth / tumors” value (OVCAR-3 cells; OVCAR-3 orthotopic xenograft) was “strongly reduced tumor growth” and the tolerability in mice (OVCAR-3 cells; in both studies) was “well tolerated”.
With `CC/C(=C(\c1ccc(O)cc1)c1ccc(OCCN(C)C)cc1)c1ccccc1` [OHT, z-4-hydroxytamoxifen, reference compound] the “cytotoxic or cytostatic phenotype” value (T47D cells [6]) was “cytostatic” and the “killing of TDG-Luc cells” value (TDG cells (T47DERαD538G); dose response, TDG-Luc cells) was “do not kill”.
With `COc1ccc(C2(c3ccc(O)cc3)C(=O)Nc3c(C(F)(F)F)cccc32)cc1` (stereo not shown) [compound 4, 3-(4-hydroxyphenyl)-3-(4-methoxyphenyl)-7-(trifluoromethyl)indolin-2-one] the “death of ERα Negative MCF-10A cells” value [1] was “neither BHPI nor any of the test compounds induce significant death”, the “effectiveness in killing ERα positive breast cancer cells compared to BHPI” value [4] was “more effective than BHPI” and the “ability to kill T47D cells (wild type estrogen receptor)” value (T47D cells [7]) was “greatly increased ability to kill”. The “ability to kill TYS cells compared to BHPI” value (TYS cells (T47DERαY537S); 35 nM) was “greatly increased ability to kill”, the “ability to kill TYS cells compared to BHPI” value (TYS cells (T47DERαY537S); 50 nM) was “increased ability to kill” and the “ability to kill TDG cells compared to BHPI” value (TDG cells (T47DERαD538G); 75 nM) was “greatly increased ability to kill”.
In the case of `C/C=C(/C)C(=O)O[C@H]1C(C)=C2[C@H]([C@@H]1OC(=O)CCCCCCC)[C@@](C)(OC(C)=O)C[C@H](OC(=O)CCC)[C@@]1(O)[C@H]2OC(=O)[C@@]1(C)O` [THG, thapsigargin, reference compound], the “effect on (−)-105-induced decline in ATP levels” value [8] is reported as “completely blocked” and the “effect on (−)-105-induced cell death” value (MCF-7 and TYS-Luc cells) is reported as “strong inhibition”.
